Assay results published in ChEMBL document CHEMBL3880410, “Novel oxabispidine compounds and their use in the treatment of cardiac arrhythmias” (2009).

What follows are compounds tested on Cavia porcellus (assay: Anti-cardiac arrhythmia activity in anaesthetised guinea pig assessed as cumulative dose inducing prolongation of monophasic action potential duration by 10% from baseline administered as first dose infusion in 0.2 mL/kg into jugular vein catheter for 30 secs followed by next dosing after 5 mins for 6 to 10 consecutive times by electrophysiology based assay).
Type: functional
`COc1ccc(S(=O)(=O)NCCN2CC3CN(CCOc4ccc(C#N)cc4)CC(C2)O3)cc1` showed a D10 of over 5.5 mg/kg.
`Cn1cnc(S(=O)(=O)NCCN2CC3CN(CCCOc4ccc(C#N)cc4)CC(C2)O3)c1` was tested, and the D10 was over 5.5 mg/kg.
Work on `N#Cc1ccc(OCCN2CC3CN(CCNS(=O)(=O)Cc4cccc(Cl)c4)CC(C2)O3)cc1` yielded a D10 of over 5.5 mg/kg.
`N#Cc1ccc(OCCCN2CC3CN(CCNS(=O)(=O)C(F)(F)F)CC(C2)O3)cc1` gave a D10 of over 5.5 mg/kg.
`N#Cc1ccc(S(=O)(=O)NCCN2CC3CN(CCCOc4ccc(C#N)cc4F)CC(C2)O3)cc1` showed a D10 of over 5.5 mg/kg.
`N#Cc1ccc(S(=O)(=O)NCCCN2CC3CN(Cc4ccc(F)cc4)CC(C2)O3)cc1` was tested, and the D10 was over 5.5 mg/kg.
`N#Cc1ccc(OCCCN2CC3CN(CCCNS(=O)(=O)Cc4ccccc4)CC(C2)O3)cc1` gave a D10 of over 5.5 mg/kg.
`N#Cc1ccc(S(=O)(=O)NCCCN2CC3CN(CCOc4c(F)cccc4F)CC(C2)O3)cc1` was tested, and the D10 was over 5.5 mg/kg.
Work on `N#Cc1ccc(OCCN2CC3CN(CCNS(=O)(=O)c4ccc(F)cc4)CC(C2)O3)cc1` yielded a D10 of over 5.5 mg/kg.
For `CN(CCN1CC2CN(CCc3ccc(F)cc3F)CC(C1)O2)S(=O)(=O)c1ccc(C#N)cc1`, the D10 was over 5.5 mg/kg.
Compound `N#Cc1ccc(CN2CC3CN(CCNS(=O)(=O)c4ccc(F)cc4)CC(C2)O3)cc1` has a D10 of over 5.5 mg/kg.
`CN(CCCN1CC2CN(CCOc3ccc(C#N)cc3F)CC(C1)O2)S(=O)(=O)c1ccccc1` showed a D10 of over 5.5 mg/kg.
In the case of `N#Cc1ccc(OCCN2CC3CN(CCNS(=O)(=O)c4cccc(F)c4)CC(C2)O3)cc1`, the D10 is reported as over 5.5 mg/kg.
With `N#Cc1ccc(S(=O)(=O)NCCN2CC3CN(Cc4coc5ccccc45)CC(C2)O3)cc1` the D10 was over 5.5 mg/kg.
Compound `N#Cc1ccc(S(=O)(=O)NCCCN2CC3CN(Cc4ccccc4)CC(C2)O3)cc1` has a D10 of over 5.5 mg/kg.
Compound `N#Cc1ccc(OCCCN2CC3CN(CCNS(=O)(=O)c4ccc(F)cc4F)CC(C2)O3)cc1` has a D10 of over 5.5 mg/kg.
Work on `N#Cc1ccc(S(=O)(=O)NCCN2CC3CN(CCCOc4ccc(F)c(F)c4)CC(C2)O3)cc1` yielded a D10 of over 5.5 mg/kg.
Compound `N#Cc1ccc(S(=O)(=O)NCCN2CC3CN(CCOc4ccccc4F)CC(C2)O3)cc1` has a D10 of over 5.5 mg/kg.
Work on `N#Cc1ccc(OCCN2CC3CN(CCNS(=O)(=O)c4ccc(F)cc4F)CC(C2)O3)cc1` yielded a D10 of over 5.5 mg/kg.
With `N#Cc1ccc(S(=O)(=O)NCCN2CC3CN(CCCOc4ccc(F)cc4F)CC(C2)O3)cc1` the D10 was over 5.5 mg/kg.
For `N#Cc1ccc(S(=O)(=O)NCCN2CC3CN(Cc4ccccc4C#N)CC(C2)O3)cc1`, the D10 was over 5.5 mg/kg.
Compound `N#Cc1ccc(S(=O)(=O)NCCN2CC3CN(Cc4ccc(F)cc4)CC(C2)O3)cc1` has a D10 of over 5.5 mg/kg.
Compound `N#Cc1ccc(S(=O)(=O)NCCN2CC3CN(CCCOc4c(F)cc(C#N)cc4F)CC(C2)O3)cc1` has a D10 of over 5.5 mg/kg.
For `CN(CCN1CC2CN(CCc3ccccc3)CC(C1)O2)S(=O)(=O)c1ccc(C#N)cc1`, the D10 was over 5.5 mg/kg.
`N#Cc1ccc(S(=O)(=O)NCCCN2CC3CN(CCc4cccc(F)c4)CC(C2)O3)cc1` was tested, and the D10 was over 5.5 mg/kg.
`N#Cc1ccc(CN2CC3CN(CCCNS(=O)(=O)c4ccc(C#N)cc4)CC(C2)O3)cc1` gave a D10 of over 5.5 mg/kg.
Work on `N#Cc1ccc(S(=O)(=O)NCCN2CC3CN(CCc4ccc(F)cc4F)CC(C2)O3)cc1` yielded a D10 of over 5.5 mg/kg.
`CC(C)S(=O)(=O)NCCCN1CC2CN(CCCOc3ccc(C#N)cc3)CC(C1)O2` gave a D10 of over 5.5 mg/kg.
`Cc1nn(C)c(Cl)c1S(=O)(=O)NCCN1CC2CN(CCCOc3ccc(C#N)cc3)CC(C1)O2` showed a D10 of over 5.5 mg/kg.
In the case of `N#Cc1ccc(S(=O)(=O)NCCN2CC3CN(Cc4nc5ccccc5o4)CC(C2)O3)cc1`, the D10 is reported as over 5.5 mg/kg.
In the case of `N#Cc1ccc(S(=O)(=O)NCCN2CC3CN(CCOc4c(F)cccc4F)CC(C2)O3)cc1`, the D10 is reported as over 5.5 mg/kg.
For `CN(CCN1CC2CN(CCOc3ccc(C#N)cc3)CC(C1)O2)S(=O)(=O)c1ccc2c(c1)CCO2`, the D10 was over 5.5 mg/kg.
For `Cc1noc(C)c1S(=O)(=O)NCCN1CC2CN(CCOc3ccc(C#N)cc3F)CC(C1)O2`, the D10 was over 5.5 mg/kg.
`CN(CCN1CC2CN(CCOc3ccc(C#N)cc3F)CC(C1)O2)S(=O)(=O)c1ccc2c(c1)CCO2` gave a D10 of over 5.5 mg/kg.
Work on `N#Cc1ccc(CN2CC3CN(CCNS(=O)(=O)c4ccccc4C#N)CC(C2)O3)cc1` yielded a D10 of over 5.5 mg/kg.
`CN(CCN1CC2CN(CCc3ccccc3F)CC(C1)O2)S(=O)(=O)c1ccc(C#N)cc1` showed a D10 of over 5.5 mg/kg.
`N#Cc1ccc(OCCN2CC3CN(CCCNS(=O)(=O)c4ccc(F)cc4)CC(C2)O3)cc1` showed a D10 of over 5.5 mg/kg.
Work on `Cc1oncc1S(=O)(=O)NCCN1CC2CN(CCCOc3ccc(C#N)cc3)CC(C1)O2` yielded a D10 of over 5.5 mg/kg.
`Cc1noc(C)c1S(=O)(=O)NCCCN1CC2CN(CCOc3ccc(C#N)cc3)CC(C1)O2` showed a D10 of over 5.5 mg/kg.
With `Cc1nn(C)c(Cl)c1S(=O)(=O)NCCN1CC2CN(CCOc3ccc(C#N)cc3)CC(C1)O2` the D10 was over 5.5 mg/kg.
`N#Cc1ccc(S(=O)(=O)NCCN2CC3CN(Cc4noc5ccccc45)CC(C2)O3)cc1` was tested, and the D10 was over 5.5 mg/kg.
`N#Cc1ccc(OCCCN2CC3CN(CCNS(=O)(=O)Cc4ccccc4)CC(C2)O3)cc1` was tested, and the D10 was over 5.5 mg/kg.
In the case of `N#Cc1ccc(OCCN2CC3CN(CCNS(=O)(=O)c4ccccc4)CC(C2)O3)cc1`, the D10 is reported as over 5.5 mg/kg.
In the case of `CS(=O)(=O)NCCN1CC2CN(CCCOc3ccc(C#N)cc3)CC(C1)O2`, the D10 is reported as over 5.5 mg/kg.
`Cc1noc(C)c1S(=O)(=O)NCCCN1CC2CN(Cc3ccc(C#N)cc3)CC(C1)O2` gave a D10 of over 5.5 mg/kg.
`CC(C)(C)NS(=O)(=O)CCCN1CC2CN(CCCOc3ccc(C#N)cc3)CC(C1)O2` was tested, and the D10 was over 5.5 mg/kg.
Work on `CC(C)S(=O)(=O)NCCN1CC2CN(CCCOc3ccc(C#N)cc3)CC(C1)O2` yielded a D10 of over 5.5 mg/kg.
`CC(C)(C)OC(=O)NCCN1CC2CN(CCNS(=O)(=O)c3ccc(F)cc3)CC(C1)O2` was tested, and the D10 was over 5.5 mg/kg.
Compound `N#Cc1ccc(S(=O)(=O)NCCN2CC3CN(CCc4ccccc4F)CC(C2)O3)cc1` has a D10 of over 5.5 mg/kg.
For `O=S(=O)(NCCN1CC2CN(CCc3ccccc3)CC(C1)O2)c1ccc(F)cc1`, the D10 was over 5.5 mg/kg.
`N#Cc1ccc(OCCN2CC3CN(CCNS(=O)(=O)c4ccc(F)cc4)CC(C2)O3)c(F)c1` was tested, and the D10 was over 5.5 mg/kg.
`Cc1noc(C)c1S(=O)(=O)NCCN1CC2CN(CCCOc3ccc(C#N)cc3)CC(C1)O2` showed a D10 of over 5.5 mg/kg.
`N#Cc1ccc(S(=O)(=O)NCCCN2CC3CN(CCc4c(F)cccc4F)CC(C2)O3)cc1` showed a D10 of over 5.5 mg/kg.
Work on `N#Cc1ccc(S(=O)(=O)NCCN2CC3CN(CCc4ccc(C(F)(F)F)cc4)CC(C2)O3)cc1` yielded a D10 of over 5.5 mg/kg.
`CN(CCN1CC2CN(CCCOc3ccc(F)cc3F)CC(C1)O2)S(=O)(=O)c1ccc(C#N)cc1` showed a D10 of over 5.5 mg/kg.
For `CC(C)S(=O)(=O)NCCN1CC2CN(C[C@H](O)COc3ccc(C#N)cc3)CC(C1)O2`, the D10 was over 5.5 mg/kg.
In the case of `CN(CCN1CC2CN(CCc3ccc(F)cc3)CC(C1)O2)S(=O)(=O)c1ccc(C#N)cc1`, the D10 is reported as over 5.5 mg/kg.
In the case of `N#Cc1ccc(S(=O)(=O)NCCN2CC3CN(CCc4c(F)cccc4F)CC(C2)O3)cc1`, the D10 is reported as over 5.5 mg/kg.
In the case of `N#Cc1ccc(OCCN2CC3CN(CCCNS(=O)(=O)c4ccccc4)CC(C2)O3)c(F)c1`, the D10 is reported as over 5.5 mg/kg.
Work on `N#Cc1ccc(S(=O)(=O)NCCN2CC3CN(CCCOc4cccc(F)c4)CC(C2)O3)cc1` yielded a D10 of over 5.5 mg/kg.
With `N#Cc1ccc(OCCCN2CC3CN(CCNS(=O)(=O)c4ccccc4C#N)CC(C2)O3)cc1` the D10 was over 5.5 mg/kg.
With `N#Cc1ccc(CN2CC3CN(CCNS(=O)(=O)c4cccc(C#N)c4)CC(C2)O3)cc1` the D10 was over 5.5 mg/kg.
`N#Cc1ccc(S(=O)(=O)NCCCN2CC3CN(CCc4ccc(F)c(F)c4)CC(C2)O3)cc1` showed a D10 of over 5.5 mg/kg.
For `N#Cc1ccc(S(=O)(=O)NCCN2CC3CN(CCc4ccc(F)cc4)CC(C2)O3)cc1`, the D10 was over 5.5 mg/kg.
For `N#Cc1ccc(CNS(=O)(=O)CCN2CC3CN(Cc4ccc(C#N)cc4)CC(C2)O3)cc1`, the D10 was over 5.5 mg/kg.
`CN(CCN1CC2CN(CCc3ccc(Cl)cc3)CC(C1)O2)S(=O)(=O)c1ccc(C#N)cc1` showed a D10 of over 5.5 mg/kg.
Compound `N#Cc1ccc(S(=O)(=O)NCCN2CC3CN(CCCOc4ccccc4F)CC(C2)O3)cc1` has a D10 of over 5.5 mg/kg.
Compound `N#Cc1ccc(OCCN2CC3CN(CCNS(=O)(=O)c4ccccc4)CC(C2)O3)c(F)c1` has a D10 of over 5.5 mg/kg.
Work on `N#Cc1ccc(S(=O)(=O)NCCCN2CC3CN(CCOc4ccc(C#N)cc4F)CC(C2)O3)cc1` yielded a D10 of over 5.5 mg/kg.
Compound `O=S(=O)(NCCN1CC2CN(Cc3ccc(F)cc3)CC(C1)O2)c1ccc(F)cc1` has a D10 of over 5.5 mg/kg.
Compound `N#Cc1ccc(S(=O)(=O)NCCN2CC3CN(CCc4ccc(Cl)cc4)CC(C2)O3)cc1` has a D10 of over 5.5 mg/kg.
`CN(CCN1CC2CN(CCc3cccc(F)c3)CC(C1)O2)S(=O)(=O)c1ccc(C#N)cc1` showed a D10 of over 5.5 mg/kg.
`N#Cc1ccc(OCCN2CC3CN(CCCNS(=O)(=O)c4ccc(F)cc4)CC(C2)O3)c(F)c1` was tested, and the D10 was over 5.5 mg/kg.
Work on `N#Cc1ccc(OCCN2CC3CN(CCNS(=O)(=O)c4cccc(F)c4)CC(C2)O3)c(F)c1` yielded a D10 of over 5.5 mg/kg.
`N#Cc1ccc(S(=O)(=O)NCCCN2CC3CN(CCc4ccccc4F)CC(C2)O3)cc1` gave a D10 of over 5.5 mg/kg.
`N#Cc1ccc(OCCN2CC3CN(CCCNS(=O)(=O)c4ccc(F)cc4F)CC(C2)O3)c(F)c1` showed a D10 of over 5.5 mg/kg.
In the case of `N#Cc1ccc(OCCCN2CC3CN(CCCNS(=O)(=O)c4ccccc4)CC(C2)O3)cc1`, the D10 is reported as over 5.5 mg/kg.
With `N#Cc1ccc(CN2CC3CN(CCNS(=O)(=O)Cc4ccccc4)CC(C2)O3)cc1` the D10 was over 5.5 mg/kg.
For `Cc1noc(C)c1CN1CC2CN(CCS(=O)(=O)N(Cc3ccc(C#N)cc3)Cc3c(C)noc3C)CC(C1)O2`, the D10 was over 5.5 mg/kg.
With `O=S(=O)(NCCN1CC2CN(CCc3cccc(F)c3)CC(C1)O2)c1ccc(F)cc1` the D10 was over 5.5 mg/kg.
For `N#Cc1cccc(S(=O)(=O)NCCN2CC3CN(CCOc4ccc(C#N)cc4F)CC(C2)O3)c1`, the D10 was over 5.5 mg/kg.
Work on `Cc1noc(C)c1S(=O)(=O)NCCN1CC2CN(Cc3ccc(C#N)cc3)CC(C1)O2` yielded a D10 of over 5.5 mg/kg.
`N#Cc1ccc(OCCCN2CC3CN(CCNS(=O)(=O)Cc4cccc(Cl)c4)CC(C2)O3)cc1` was tested, and the D10 was over 5.5 mg/kg.
In the case of `N#Cc1ccc(OCCN2CC3CN(CCCNS(=O)(=O)c4ccccc4F)CC(C2)O3)cc1`, the D10 is reported as over 5.5 mg/kg.
`N#Cc1ccc(OCCCN2CC3CN(CCNS(=O)(=O)c4ccc(C#N)cc4)CC(C2)O3)cc1` showed a D10 of over 5.5 mg/kg.
In the case of `N#Cc1ccc(S(=O)(=O)NCCN2CC3CN(CCc4ccccc4)CC(C2)O3)cc1`, the D10 is reported as over 5.5 mg/kg.
